In brackets after ≈: the same amount, converted by molar mass. Numbered stars: 1 amine (or outer) side, 2 acyl side, 3 side chain; on linkers, the order of the positions; unused ones are H or OH. Bridge positions count the residues as written; N and C are the ends. Square brackets hold non-standard residues; d marks the D form. Peptide text beside a SMILES is read from it. * marks the point of attachment. Phe(3R-OH) = O=C([C@@H](N[*:1])[C@H](O[*:3])c1ccccc1)[*:2]; NMeTrp(4-OMe) = CN[C@@H](Cc1c[nH]c2cccc(OC)c12)C(=O)O; NMeaIle = CC[C@@H](C)[C@H](NC)C(=O)O; NMe2Val = CC(C)[C@@H](C(=O)*)N(C)C; NMeT = CN[C@H](C(=O)O)[C@@H](C)O; NMeL = CN[C@@H](CC(C)C)C(=O)O; NMeV = CN[C@H](C(=O)O)C(C)C
Tested on: Mycobacterium tuberculosis
Assay: Antimycobacterial activity against Mycobacterium tuberculosis H37Rv ATCC 27294 by Alamar blue assay
Format: functional

SMILES	MIC [µg/mL]
CC[C@@H](C)[C@@H](C(=O)N[C@@H]1C(=O)N(C)[C@@H]([C@@H](C)O)C(=O)N[C@@H](C(C)C)C(=O)N(C)[C@@H](CC(C)C)C(=O)N[C@@H](C(C)C)C(=O)N(C)[C@@H](C(C)C)C(=O)N(C)[C@@H](Cc2c[nH]c3cccc(OC)c23)C(=O)N[C@@H](C(C)C)C(=O)N[C@@H]([C@H](O)c2ccccc2)C(=O)N[C@@H]([C@@H](C)CC)C(=O)O[C@@H]1C)N(C)C(=O)[C@@H](NC(=O)[C@H](C(C)C)N(C)C)C(C)C	0.26 (≈ 0.161 µM)
CC[C@@H](C)[C@@H](C(=O)N[C@@H]1C(=O)N(C)[C@@H]([C@@H](C)O)C(=O)N[C@@H]([C@@H](C)CC)C(=O)N(C)[C@@H](CC(C)C)C(=O)N[C@@H](C(C)C)C(=O)N(C)[C@@H](C(C)C)C(=O)N(C)[C@@H](Cc2c[nH]c3cccc(OC)c23)C(=O)N[C@@H](C(C)C)C(=O)N[C@@H]([C@H](O)c2ccccc2)C(=O)N[C@@H](C(C)C)C(=O)O[C@@H]1C)N(C)C(=O)[C@@H](NC(=O)[C@H](C(C)C)N(C)C)C(C)C	0.26 (≈ 0.161 µM)
CC[C@@H](C)[C@@H](C(=O)N[C@@H]1C(=O)N(C)[C@@H]([C@@H](C)O)C(=O)N[C@@H](C(C)C)C(=O)N(C)[C@@H](CC(C)C)C(=O)N[C@@H](C(C)C)C(=O)N(C)[C@@H](C(C)C)C(=O)N(C)[C@@H](Cc2c[nH]c3cccc(OC)c23)C(=O)N[C@@H]([C@@H](C)CC)C(=O)N[C@@H]([C@H](O)c2ccccc2)C(=O)N[C@@H](C(C)C)C(=O)O[C@@H]1C)N(C)C(=O)[C@@H](NC(=O)[C@H](C(C)C)N(C)C)C(C)C	0.26 (≈ 0.161 µM)
CC[C@@H](C)[C@@H](C(=O)N[C@@H]1C(=O)N(C)[C@@H]([C@@H](C)O)C(=O)N[C@@H](C(C)C)C(=O)N(C)[C@@H](CC(C)C)C(=O)N[C@@H](C(C)C)C(=O)N(C)[C@@H](C(C)C)C(=O)N(C)[C@@H](Cc2c[nH]c3cccc(OC)c23)C(=O)N[C@@H](C(C)C)C(=O)N[C@@H](Cc2ccccc2)C(=O)N[C@@H](C(C)C)C(=O)O[C@@H]1C)N(C)C(=O)[C@@H](NC(=O)[C@H](C(C)C)N(C)C)C(C)C	0.55 (≈ 0.347 µM)
COc1cccc2[nH]cc(C[C@H]3C(=O)N[C@@H](C(C)C)C(=O)N[C@@H](Cc4ccccc4)C(=O)N[C@@H](C(C)C)C(=O)O[C@H](C)[C@H](NC(=O)[C@H](C(C)C)N(C)C(=O)[C@@H](NC(=O)[C@H](C(C)C)N(C)C)C(C)C)C(=O)N(C)[C@@H]([C@@H](C)O)C(=O)N[C@@H](C(C)C)C(=O)N(C)[C@@H](CC(C)C)C(=O)N[C@@H](C(C)C)C(=O)N(C)[C@@H](C(C)C)C(=O)N3C)c12 (NMe2Val-V[NMeV]T[NMeT]V[NMeL]V[NMeV][NMeTrp(4-OMe)]VFV; ester 3-C)	0.13 (≈ 0.0828 µM)
COc1cccc2[nH]cc(C[C@H]3C(=O)N[C@@H](C(C)C)C(=O)N[C@@H]([C@H](O)c4ccccc4)C(=O)N[C@@H](C(C)C)C(=O)O[C@H](C)[C@H](NC(=O)[C@H](C(C)C)N(C)C(=O)[C@@H](NC(=O)[C@H](C(C)C)N(C)C)C(C)C)C(=O)N(C)[C@@H]([C@@H](C)O)C(=O)N[C@@H](C(C)C)C(=O)N(C)[C@@H](CC(C)C)C(=O)N[C@@H](C(C)C)C(=O)N(C)[C@@H](C(C)C)C(=O)N3C)c12 (NMe2Val-V[NMeV]T[NMeT]V[NMeL]V[NMeV][NMeTrp(4-OMe)]V[Phe(3R-OH)]V; ester 3-C)	0.15 (≈ 0.0946 µM)
CC[C@@H](C)[C@@H](C(=O)N[C@@H]1C(=O)N(C)[C@@H]([C@@H](C)O)C(=O)N[C@@H](C(C)C)C(=O)N(C)[C@@H](CC(C)C)C(=O)N[C@@H](C(C)C)C(=O)N(C)[C@@H](C(C)C)C(=O)N(C)[C@@H](Cc2c[nH]c3cccc(OC)c23)C(=O)N[C@@H](C(C)C)C(=O)N[C@@H]([C@H](O)c2ccccc2)C(=O)N[C@@H](C(C)C)C(=O)O[C@@H]1C)N(C)C(=O)[C@@H](NC(=O)[C@H](C(C)C)N(C)C)C(C)C (NMe2Val-V[NMeaIle]T[NMeT]V[NMeL]V[NMeV][NMeTrp(4-OMe)]V[Phe(3R-OH)]V; ester 3-C)	0.26 (≈ 0.162 µM)
